Test results as given in patent US20250051375A1, “ANTI-HIV COMPOUNDS” (Gilead Sciences, Inc., priority 2023, published 2025).
In brackets after ≈: the same amount, converted by molar mass. Read-outs that look alike come from different tables or passages of the source.

Tests used:
HIV-1 IIIB strain = assay: MT-4 HIV Wild Type Virus Infection Assay (IIIB Virus); assay type: cell-based; conditions: Human immunodeficiency virus 1, IIIB, MT4, 120 h, MT-4 cells acutely infected with HIV-1 IIIB, 5 day incubation, Cell-titer glo
Method in brief: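 MT-4 cells at 2×10^6 cells/ml in RPMI/10% FBS were acutely infected with HIV-1 IIIB for 1 h at 37° C, diluted 25× and added to serially diluted compounds. After 5 days at 37° C, viability read by CellTiter-Glo luminescence; EC50 from dose-response curves.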

[1] = target: bovine intestinal alkaline phosphatase (Bos taurus (Bovine), UniProt P19111); assay: BiALP: conversion by bovine intestinal alkaline phosphatase; assay type: in vitro ADME; conditions: 2 μM substrate, 100 ng/mL iALP, Tris pH 7.8, 37° C., 60 minutes; for [Intermediate A] or [Amprenavir]: parent formed
Chain of bovine intestinal alkaline phosphatase (P19111 20-506): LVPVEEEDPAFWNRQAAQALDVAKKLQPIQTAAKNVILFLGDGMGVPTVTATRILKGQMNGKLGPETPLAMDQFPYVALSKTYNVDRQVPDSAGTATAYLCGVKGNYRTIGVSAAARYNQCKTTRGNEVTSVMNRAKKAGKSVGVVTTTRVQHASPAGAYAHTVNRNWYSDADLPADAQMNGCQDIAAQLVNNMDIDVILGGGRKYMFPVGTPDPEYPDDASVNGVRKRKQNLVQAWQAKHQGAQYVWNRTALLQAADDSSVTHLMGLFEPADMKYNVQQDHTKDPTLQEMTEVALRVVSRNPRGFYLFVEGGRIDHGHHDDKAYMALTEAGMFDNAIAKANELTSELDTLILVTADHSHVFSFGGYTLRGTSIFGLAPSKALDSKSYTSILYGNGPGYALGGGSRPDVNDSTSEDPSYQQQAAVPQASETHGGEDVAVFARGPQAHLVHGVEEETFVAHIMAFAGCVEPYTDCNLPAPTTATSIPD
Method in brief: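 LC-MS (positive mode) quantified analyte/internal-standard peak area ratios, referenced to 2 μM parent product. This followed a 60 min, 37° C reaction of 2 μM substrate in Tris buffer pH 7.8 (1 mM MgCl2, 1 mM ZnCl2) containing 100 ng/mL iALP or buffer alone, run in triplicate.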

[2] = Intestinal S9 Assay (human GI S9); assay type: in vitro ADME; conditions: 1.0 mg/mL S9 protein; for half-life at 2 μM: human, TRIS pH 7.4, read-out: Human GI S9 T½; for Human GI S9 [Intermediate A] / Human GI S9 [Intermediate A] %: 2 μM, TRIS pH 7.4
Method in brief: (§1)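 Pooled dog or human intestinal S9 at 1.0 mg/mL protein in TRIS buffer pH 7.4 with ZnCl2 and MgCl2; compound at 2 μM, sampled 0–120 min and quenched. Remaining parent by LC-MS peak area ratio; half-life from first-order exponential decline fit.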

[3] = Intestinal S9 Assay (dog GI S9); assay type: in vitro ADME; conditions: 1.0 mg/mL S9 protein; for half-life at 2 μM: dog, TRIS pH 7.4, read-out: Dog GI S9 T½; for Dog GI S9 [Intermediate A] / Dog GI S9 [Intermediate A] %: 2 μM, TRIS pH 7.4
Method in brief: as §1

PBS Stability Assay = assay type: physicochemical; conditions: buffer, pH 7.4, 2 μM, phosphate buffered saline pH 7.4; read-out: PBS T½
Method in brief: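 Half-life derives from first-order exponential decline of % compound remaining, quantified by LC-MS analyte/internal-standard peak-area ratio. Compound (2 μM final) sat in pH 7.4 phosphate-buffered saline, with aliquots quenched into acidified acetonitrile containing labetalol from 0 to 120 min.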

Solubility in FaSSIF = conditions: 23 °C, pH 6.5, fassif, thermodynamic from solid
Method in brief: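 Concentration measured by HPLC-UV after solid compound was dosed at 5 mg/mL into pH 6.5 fasted-state simulated intestinal fluid containing taurocholate and lecithin (4:1 molar) and vortexed.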

COC(=O)N[C@H](C(=O)N[C@@H](Cc1ccc(C#Cc2cnc(N3CC4CCC(C3)N4C3COC3)nc2)cc1)[C@H](CN(Cc1c(F)cc(-c2ccn(C(F)F)n2)cc1F)NC(=O)[C@@H](NC(=O)OC)C(C)(C)C(F)(F)F)OC(=O)CC(C)(C)c1c(CC(=O)N2CC[C@H](C(=O)O)C2)cc(C)cc1OP(=O)(O)O)C(C)(C)C(F)(F)F [Example 76]
EC50 (HIV-1 IIIB strain): 333 nM | [Compound] [1]: 1777 nM | half-life at 2 μM [2]: 6.16 h | half-life at 2 μM [3]: 4.41 h | half-life at 2 μM (PBS Stability Assay): 4.89 h | solubility at 2 h (Solubility in FaSSIF): 2230 µg/mL (≈ 1410 µM)

COC(=O)N[C@H](C(=O)N[C@@H](Cc1ccc(C#Cc2cnc(N3CC4CCC(C3)N4C3COC3)nc2)cc1)[C@H](CN(Cc1c(F)cc(-c2ccn(C(F)F)n2)cc1F)NC(=O)[C@@H](NC(=O)OC)C(C)(C)C(F)(F)F)OC(=O)CC(C)(C)c1c(CC(=O)Nc2ccc(/C=C/C(=O)O)cc2)cc(C)cc1OP(=O)(O)O)C(C)(C)C(F)(F)F [Example 52]
EC50 (HIV-1 IIIB strain): 67.2 nM | [Compound] [1]: 2131.6 nM | half-life at 2 μM [2]: 5.07 h | half-life at 2 μM [3]: 2.59 h | half-life at 2 μM (PBS Stability Assay): 5.92 h | solubility at 2 h (Solubility in FaSSIF): < 1000 µg/mL

COC(=O)N[C@H](C(=O)N[C@@H](Cc1ccc(C#Cc2cnc(N3CC4CCC(C3)N4C3COC3)nc2)cc1)[C@H](CN(Cc1c(F)cc(-c2ccn(C(F)F)n2)cc1F)NC(=O)[C@@H](NC(=O)OC)C(C)(C)C(F)(F)F)OC(=O)CC(C)(C)c1c(CC(=O)N[C@@H](CCC(=O)O)C(=O)O)cccc1OP(=O)(O)O)C(C)(C)C(F)(F)F [Example 6]
EC50 (HIV-1 IIIB strain): 20.7 nM | [Compound] [1]: 1304.1 nM | biALP Intermediate A or [Amprenavir] (% of total) [1]: 19 % of total | [Intermediate A] or [Amprenavir] [1]: 306.6 nM | Human GI S9 [Intermediate A] [2]: 363.6 nM | Human GI S9 [Intermediate A] % [2]: 28.2% | half-life at 2 μM [2]: 2.57 h | Dog GI S9 [Intermediate A] [3]: 1236 nM | Dog GI S9 [Intermediate A] % [3]: 93.8% | half-life at 2 μM [3]: 0.393 h | half-life at 2 μM (PBS Stability Assay): 10.9 h | solubility at 2 h (Solubility in FaSSIF): 3710 µg/mL (≈ 2320 µM)

COC(=O)N[C@H](C(=O)N[C@@H](Cc1ccc(C#Cc2cnc(N3CC4CCC(C3)N4C3COC3)nc2)cc1)[C@H](CN(Cc1c(F)cc(-c2ccn(C(F)F)n2)cc1F)NC(=O)[C@@H](NC(=O)OC)C(C)(C)C(F)(F)F)OC(=O)CC(C)(C)c1c(CC(=O)N[C@@H](CCS(=O)(=O)O)C(=O)O)cc(C)cc1OP(=O)(O)O)C(C)(C)C(F)(F)F [Example 33]
EC50 (HIV-1 IIIB strain): 65.7 nM | [Compound] [1]: 1487.1 nM | half-life at 2 μM [2]: 3.72 h | half-life at 2 μM [3]: 1.51 h | half-life at 2 μM (PBS Stability Assay): 5.71 h | solubility at 2 h (Solubility in FaSSIF): 4240 µg/mL (≈ 2570 µM)

COC(=O)N[C@H](C(=O)N[C@@H](Cc1ccc(C#Cc2cnc(N3CC4CCC(C3)N4C3COC3)nc2)cc1)[C@H](CN(Cc1c(F)cc(-c2ccn(C(F)F)n2)cc1F)NC(=O)[C@@H](NC(=O)OC)C(C)(C)C(F)(F)F)OC(=O)CC(C)(C)c1c(CC(=O)O)cccc1OP(=O)(O)O)C(C)(C)C(F)(F)F [Example 5, 2-(2-((5S,10S)-8-(4-(1-(difluoromethyl)-1H-pyrazol-3-yl)-2,6-difluorobenzyl)-14-methyl-10-((1S)-2-(4-((2-(8-(oxetan-3-yl)-3,8-diazabicyclo[3.2.1]octan-3-yl)pyrimidin-5-yl)ethynyl)phenyl)-1-((S)-4,4,4-trifluoro-2-((methoxycarbonyl)amino)-3,3-dimethylbutanamido)ethyl)-3,6,12-trioxo-5-(1,1,1-trifluoro-2-methylpropan-2-yl)-2,11-dioxa-4,7,8-triazapentadecan-14-yl)-3-(phosphonooxy)phenyl)acetic acid]
EC50 (HIV-1 IIIB strain; read-out: EC50): 73.7 nM | [Compound] [1]: 1638.1 nM | half-life at 2 μM [2]: 11.6 h | half-life at 2 μM [3]: 0.74 h | half-life at 2 μM (PBS Stability Assay): 7.62 h | solubility (Solubility in FaSSIF; FaSSIF (pH 6.5) solubility, FaSSIF pH 6.5, dose 5 mg/mL, 2-hour incubation, ambient temperature): < 1000 µg/mL

COC(=O)N[C@H](C(=O)N[C@@H](Cc1ccc(C#Cc2cnc(N3CC4CCC(C3)N4C3COC3)nc2)cc1)[C@H](CN(Cc1c(F)cc(-c2ccn(C(F)F)n2)cc1F)NC(=O)[C@@H](NC(=O)OC)C(C)(C)C(F)(F)F)OC(=O)CC(C)(C)c1c(CC(=O)N[C@@H](Cc2ccc(C(=O)O)cc2)C(=O)O)cc(C)cc1OP(=O)(O)O)C(C)(C)C(F)(F)F [Example 45]
EC50 (HIV-1 IIIB strain): 209 nM | [Compound] [1]: 1787.4 nM | half-life at 2 μM [2]: 6.23 h | half-life at 2 μM [3]: 0.993 h | half-life at 2 μM (PBS Stability Assay): 4.74 h | solubility at 2 h (Solubility in FaSSIF): 4300 µg/mL (≈ 2570 µM)

COC(=O)N[C@H](C(=O)N[C@@H](Cc1ccc(C#Cc2cnc(N3CC4CCC(C3)N4C3COC3)nc2)cc1)[C@H](CN(Cc1c(F)cc(-c2ccn(C(F)F)n2)cc1F)NC(=O)[C@@H](NC(=O)OC)C(C)(C)C(F)(F)F)OC(=O)CC(C)(C)c1c(CC(=O)N[C@@H](CCC(=O)O)C(=O)O)cc(C)cc1OP(=O)(O)O)C(C)(C)C(F)(F)F [Example 66]
EC50 (HIV-1 IIIB strain): 164 nM | [Compound] [1]: 1908 nM | biALP Intermediate A or [Amprenavir] (% of total) [1]: 9.4 % of total | [Intermediate A] or [Amprenavir] [1]: 197.1 nM | Human GI S9 [Intermediate A] [2]: 367.6 nM | Human GI S9 [Intermediate A] % [2]: 26% | half-life at 2 μM [2]: 3.19 h | Dog GI S9 [Intermediate A] [3]: 965.9 nM | Dog GI S9 [Intermediate A] % [3]: 68.6% | half-life at 2 μM [3]: 0.912 h | half-life at 2 μM (PBS Stability Assay): 4.86 h | solubility at 2 h (Solubility in FaSSIF): 3890 µg/mL (≈ 2410 µM)

COC(=O)N[C@H](C(=O)N[C@@H](Cc1ccc(C#Cc2cnc(N3CC4CCC(C3)N4C3COC3)nc2)cc1)[C@H](CN(Cc1c(F)cc(-c2ccn(C(F)F)n2)cc1F)NC(=O)[C@@H](NC(=O)OC)C(C)(C)C(F)(F)F)OC(=O)CC(C)(C)c1c(CC(=O)NCc2ccc(C(=O)O)cc2)cc(C)cc1OP(=O)(O)O)C(C)(C)C(F)(F)F [Example 49]
EC50 (HIV-1 IIIB strain): 224 nM | [Compound] [1]: 2175 nM | half-life at 2 μM [2]: 5.5 h | half-life at 2 μM [3]: 2.59 h | half-life at 2 μM (PBS Stability Assay): 5.66 h | solubility at 2 h (Solubility in FaSSIF): 1220 µg/mL (≈ 754 µM)

COC(=O)N[C@H](C(=O)N[C@@H](Cc1ccc(C#Cc2cnc(N3CC4CCC(C3)N4C3COC3)nc2)cc1)[C@H](CN(Cc1c(F)cc(-c2ccn(C(F)F)n2)cc1F)NC(=O)[C@@H](NC(=O)OC)C(C)(C)C(F)(F)F)OC(=O)CC(C)(C)c1c(CC(=O)NC23CC(C(=O)O)(C2)C3)cc(C)cc1OP(=O)(O)O)C(C)(C)C(F)(F)F [Example 38]
EC50 (HIV-1 IIIB strain): 305 nM | [Compound] [1]: 1920.9 nM | half-life at 2 μM [2]: 7.82 h | half-life at 2 μM [3]: 6.52 h | half-life at 2 μM (PBS Stability Assay): 5.16 h | solubility at 2 h (Solubility in FaSSIF): 3500 µg/mL (≈ 2200 µM)

COC(=O)N[C@H](C(=O)N[C@@H](Cc1ccc(C#Cc2cnc(N3CC4CCC(C3)N4C3COC3)nc2)cc1)[C@H](CN(Cc1c(F)cc(-c2ccn(C(F)F)n2)cc1F)NC(=O)[C@@H](NC(=O)OC)C(C)(C)C(F)(F)F)OC(=O)CC(C)(C)c1c(CC(=O)NCC(=O)NS(C)(=O)=O)cc(C)cc1OP(=O)(O)O)C(C)(C)C(F)(F)F [Example 27, (5S,10S,11S,14S)-8-(4-(1-(difluoromethyl)-1H-pyrazol-3-yl)-2,6-difluorobenzyl)-11-(4-((2-(8-(oxetan-3-yl)-3,8-diazabicyclo[3.2.1]octan-3-yl)pyrimidin-5-yl)ethynyl)benzyl)-3,6,13,16-tetraoxo-5,14-bis(1,1,1-trifluoro-2-methylpropan-2-yl)-2,17-dioxa-4,7,8,12,15-pentaazaoctadecan-10-yl 3-methyl-3-(4-methyl-2-(2-((2-(methylsulfonamido)-2-oxoethyl)amino)-2-oxoethyl)-6-(phosphonooxy)phenyl)butanoate]
EC50 (HIV-1 IIIB strain): 173 nM | [Compound] [1]: 2082.4 nM | half-life at 2 μM [2]: 2.46 h | half-life at 2 μM [3]: 1.82 h | half-life at 2 μM (PBS Stability Assay): 6.41 h | solubility at 2 h (Solubility in FaSSIF): 4420 µg/mL (≈ 2730 µM)

COC(=O)N[C@H](C(=O)N[C@@H](Cc1ccc(C#Cc2cnc(N3CC4CCC(C3)N4C3COC3)nc2)cc1)[C@H](CN(Cc1c(F)cc(-c2ccn(C(F)F)n2)cc1F)NC(=O)[C@@H](NC(=O)OC)C(C)(C)C(F)(F)F)OC(=O)CC(C)(C)c1c(CC(=O)N[C@@]2(C(=O)O)CCOC2)cc(C)cc1OP(=O)(O)O)C(C)(C)C(F)(F)F [Example 29]
EC50 (HIV-1 IIIB strain): 213 nM | [Compound] [1]: 1878.7 nM | half-life at 2 μM [2]: 3.31 h | half-life at 2 μM [3]: 0.822 h | half-life at 2 μM (PBS Stability Assay): 8.62 h | solubility at 2 h (Solubility in FaSSIF): 4970 µg/mL (≈ 3110 µM)
